# From patent US20250154141A1 (University of Florida Research Foundation, Incorporated, priority 2021, published 2025)
# Where two headings read alike, the source gives them in different places.
# Columns and labels:
# RS4; 11 = experiment: Cell viability assay (MTS) in RS4; 11 cells; assay type: cell-based; details: Homo sapiens
# Protocol: (§1) Acute lymphoblastic leukemia cells (MOLT-4 and RS4; 11) were incubated with increasing concentrations of Bcl-xL degraders for 48 h. Cell viability was measured by tetrazolium-based MTS assay.
# MOLT-4 = experiment: Cell viability assay (MTS) in MOLT-4 cells; assay type: cell-based; details: Homo sapiens
# Protocol: as §1
# [1] = RS4-11, Table 2, 48 hr, MTS, read-out: Anti-Cancer Activity IC50 (48 hr) RS4, 11
# [2] = MOLT-4, Table 2, 48 hr, MTS, read-out: Anti-Cancer Activity IC50 (48 hr) MOLT-4
# [3] = RS4-11, Table 2A, 48 hr, MTS, read-out: Anti-Cancer Activity IC50 (48 hr) RS4, 11
# [4] = MOLT-4, Table 2A, 48 hr, MTS, read-out: Anti-Cancer Activity IC50 (48 hr) MOLT-4
IC50 (RS4; 11; [1]) [nM],IC50 (MOLT-4; [2]) [nM],SMILES,also measured
< 20,20 to 100,"Cc1ncsc1-c1ccc([C@H](C)NC(=O)[C@@H]2C[C@@H](O)CN2C(=O)[C@@H](NC(=O)CCCCCOCc2cn(CC3(C)CCC(c4ccc(Cl)cc4)=C(CN4CCN(c5ccc(C(=O)NS(=O)(=O)c6ccc(N[C@H](CCN7CCOCC7)CSc7ccccc7)c(S(=O)(=O)C(F)(F)F)c6)cc5)CC4)C3)nn2)C(C)(C)C)cc1 (stereo partly drawn) [Compound 20, (2S,4R)-1-((2S)-2-(6-((1-((4′-chloro-4-methyl-6-((4-(4-(((4-(((R)-4-morpholino-1-(phenylthio)butan-2-yl)amino)-3-((trifluoromethyl)sulfonyl)phenyl)sulfonyl)carbamoyl)phenyl)piperazin-1-yl)methyl)-2,3,4,5-tetrahydro-[1,1′-biphenyl]-4-yl)methyl)-1H-1,2,3-triazol-4-yl)methoxy)hexanamido)-3,3-dimethylbutanoyl)-4-hydroxy-N—((S)-1-(4-(4-methylthiazol-5-yl)phenyl)ethyl)pyrrolidine-2-carboxamide]","IC50 (RS4; 11; RS4-11, Table 5, 48 h, read-out: RS4 48 h IC50): 15.6 nM; IC50 (MOLT-4; MOLT-4, Table 5, 48 h, read-out: MOLT-4 48 h IC50): 88.1 nM"
–,–,Cc1ncsc1-c1ccc([C@H](C)NC(=O)[C@@H]2C[C@@H](O)CN2C(=O)[C@@H](NC(=O)CN2CCN(CCNC(=O)c3ccc(CN4CCN(C[C@]5(C)CCC(c6ccc(Cl)cc6)=C(CN6CCN(c7ccc(C(=O)NS(=O)(=O)c8ccc(N[C@H](CCN9CCCOCC9)CSc9ccccc9)c(S(=O)(=O)C(F)(F)F)c8)cc7)CC6)C5)CC4)nc3)CC2)C(C)(C)C)cc1 [Compound 114],IC50 (RS4; 11; [3]): < 20 nM; IC50 (MOLT-4; [4]): < 20 nM
–,–,Cc1ncsc1-c1ccc([C@H](C)NC(=O)[C@@H]2C[C@@H](O)CN2C(=O)[C@@H](NC(=O)CCCCC(=O)N2CCN(C3CCN(C[C@]4(C)CCC(c5ccc(Cl)cc5)=C(CN5CCN(c6ccc(C(=O)NS(=O)(=O)c7ccc(N[C@H](CCN8CCCOCC8)CSc8ccccc8)c(S(=O)(=O)C(F)(F)F)c7)cc6)CC5)C4)CC3)CC2)C(C)(C)C)cc1 [Compound 119],IC50 (RS4; 11; [3]): < 20 nM; IC50 (MOLT-4; [4]): < 20 nM
–,–,Cc1ncsc1-c1ccc([C@H](C)NC(=O)[C@@H]2C[C@@H](O)CN2C(=O)[C@@H](NC(=O)CN2C3CC2CN(CC(=O)N2CCN(CC4(C)CCC(c5ccc(Cl)cc5)=C(CN5CCN(c6ccc(C(=O)NS(=O)(=O)c7ccc(N[C@H](CCN8CCOCC8)CSc8ccccc8)c(S(=O)(=O)C(F)(F)F)c7)cc6)CC5)C4)CC2)C3)C(C)(C)C)cc1 (stereo partly drawn) [Compound 31],"IC50 (RS4; 11; RS4-11, 48 h, read-out: Anti-Cancer Activity IC50 (48 hr) RS4, 11): 100 to 500 nM; IC50 (MOLT-4; MOLT-4, 48 h, read-out: Anti-Cancer Activity IC50 (48 hr) MOLT-4): 100 to 500 nM"
100 to 500,20 to 100,Cc1ncsc1-c1ccc([C@H](C)NC(=O)[C@@H]2C[C@@H](O)CN2C(=O)[C@@H](NC(=O)CCCCCCC(=O)N2C(C)CN(C[C@]3(C)CCC(c4ccc(Cl)cc4)=C(CN4CCN(c5ccc(C(=O)NS(=O)(=O)c6ccc(N[C@H](CCN7CCCOCC7)CSc7ccccc7)c(S(=O)(=O)C(F)(F)F)c6)cc5)CC4)C3)CC2C)C(C)(C)C)cc1 (stereo partly drawn) [compound 83],–
< 20,< 20,Cc1ncsc1-c1ccc([C@H](C)NC(=O)[C@@H]2C[C@@H](O)CN2C(=O)[C@@H](NC(=O)CCCCCCC(=O)N2CCN(C[C@]3(C)CCC(c4ccc(Cl)cc4)=C(CN4CCN(c5ccc(C(=O)NS(=O)(=O)c6ccc(N[C@H](CCN7C[C@H]8COC[C@H]8C7)CSc7ccccc7)c(S(=O)(=O)C(F)(F)F)c6)cc5)CC4)C3)CC2)C(C)(C)C)cc1 [Compound 95],–
< 20,< 20,"Cc1ncsc1-c1ccc([C@H](C)NC(=O)[C@@H]2C[C@@H](O)CN2C(=O)[C@@H](NC(=O)CCCCCCC(=O)N2CCN(C[C@]3(C)CCC(c4ccc(Cl)cc4)=C(CN4CCN(c5ccc(C(=O)NS(=O)(=O)c6ccc(N[C@H](CCN7CCCCC7)CSc7ccccc7)c(S(=O)(=O)C(F)(F)F)c6)cc5)CC4)C3)CC2)C(C)(C)C)cc1 [Compound 58, (2S,4R)-1-((S)-2-(8-(4-(((R)-4′-chloro-4-methyl-6-((4-(4-(((4-(((R)-1-(phenylthio)-4-(piperidin-1-yl)butan-2-yl)amino)-3-((trifluoromethyl)sulfonyl)phenyl)sulfonyl)carbamoyl)phenyl)piperazin-1-yl)methyl)-2,3,4,5-tetrahydro-[1,1′-biphenyl]-4-yl)methyl)piperazin-1-yl)-8-oxooctanamido)-3,3-dimethylbutanoyl)-4-hydroxy-N—((S)-1-(4-(4-methylthiazol-5-yl)phenyl)ethyl)pyrrolidine-2-carboxamide]",–
100 to 500,100 to 500,Cc1ncsc1-c1ccc([C@H](C)NC(=O)[C@@H]2C[C@@H](O)CN2C(=O)[C@@H](NC(=O)CCCCCOCc2cn(CCCC(=O)NCC3(C)CCC(c4ccc(Cl)cc4)=C(CN4CCN(c5ccc(C(=O)NS(=O)(=O)c6ccc(N[C@H](CCN7CCOCC7)CSc7ccccc7)c(S(=O)(=O)C(F)(F)F)c6)cc5)CC4)C3)nn2)C(C)(C)C)cc1 (stereo partly drawn) [Compound 22],–
< 20,< 20,"Cc1ncsc1-c1ccc([C@H](C)NC(=O)[C@@H]2C[C@@H](O)CN2C(=O)[C@@H](NC(=O)CCCCCCS(=O)(=O)N2CCN(C[C@]3(C)CCC(c4ccc(Cl)cc4)=C(CN4CCN(c5ccc(C(=O)NS(=O)(=O)c6ccc(N[C@H](CCN7CCCOCC7)CSc7ccccc7)c(S(=O)(=O)C(F)(F)F)c6)cc5)CC4)C3)CC2)C(C)(C)C)cc1 [Compound 96, (2S,4R)-1-((S)-2-(7-((4-(((R)-6-((4-(4-(((4-(((R)-4-(1,4-oxazepan-4-yl)-1-(phenylthio)butan-2-yl)amino)-3-((trifluoromethyl)sulfonyl)phenyl)sulfonyl)carbamoyl)phenyl)piperazin-1-yl)methyl)-4′-chloro-4-methyl-2,3,4,5-tetrahydro-[1,1′-biphenyl]-4-yl)methyl)piperazin-1-yl)sulfonyl)heptanamido)-3,3-dimethylbutanoyl)-4-hydroxy-N—((S)-1-(4-(4-methylthiazol-5-yl)phenyl)ethyl)pyrrolidine-2-carboxamide]",–
< 20,< 20,Cc1ncsc1-c1ccc([C@H](C)NC(=O)[C@@H]2C[C@@H](O)CN2C(=O)[C@@H](NC(=O)CN2CCN(CC(=O)N3CCN(CC4(C)CCC(c5ccc(Cl)cc5)=C(CN5CCN(c6ccc(C(=O)NS(=O)(=O)c7ccc(N[C@H](CCN8CCOCC8)CSc8ccccc8)c(S(=O)(=O)C(F)(F)F)c7)cc6)CC5)C4)CC3)CC2)C(C)(C)C)cc1 (stereo partly drawn) [Compound 25],–
20 to 100,100 to 500,"Cc1ncsc1-c1ccc([C@H](C)NC(=O)[C@@H]2C[C@@H](O)CN2C(=O)[C@@H](NC(=O)CCCCCCCCC(=O)N2CCN(CCC3(C)CCC(c4ccc(Cl)cc4)=C(CN4CCN(c5ccc(C(=O)NS(=O)(=O)c6ccc(N[C@H](CCN7CCOCC7)CSc7ccccc7)c(S(=O)(=O)C(F)(F)F)c6)cc5)CC4)C3)CC2)C(C)(C)C)cc1 (stereo partly drawn) [Compound 30, (2S,4R)-1-((2S)-2-(10-(4-(2-(4′-chloro-4-methyl-6-((4-(4-(((4-(((R)-4-morpholino-1-(phenylthio)butan-2-yl)amino)-3-((trifluoromethyl)sulfonyl)phenyl)sulfonyl)carbamoyl)phenyl)piperazin-1-yl)methyl)-2,3,4,5-tetrahydro-[1,1′-biphenyl]-4-yl)ethyl)piperazin-1-yl)-10-oxodecanamido)-3,3-dimethylbutanoyl)-4-hydroxy-N—((S)-1-(4-(4-methylthiazol-5-yl)phenyl)ethyl)pyrrolidine-2-carboxamide]",–
< 20,< 20,Cc1ncsc1-c1ccc([C@H](C)NC(=O)[C@@H]2C[C@@H](O)CN2C(=O)[C@@H](NC(=O)CCCCCCC(=O)N2CCN(C[C@]3(C)CCC(c4ccc(Cl)cc4)=C(CN4CCN(c5ccc(C(=O)NS(=O)(=O)c6ccc(N[C@H](CCN7CCCOCC7)CSc7ccccc7)c(S(=O)(=O)C(F)(F)F)c6)cc5)CC4)C3)C[C@H]2C)C(C)(C)C)cc1 [Compound 81],–
< 20,20 to 100,"CCN(CCO)CC[C@H](CSc1ccccc1)Nc1ccc(S(=O)(=O)NC(=O)c2ccc(N3CCN(CC4=C(c5ccc(Cl)cc5)CCC(C)(CN5CCN(C(=O)CCCCCCC(=O)N[C@H](C(=O)N6C[C@H](O)C[C@H]6C(=O)N[C@@H](C)c6ccc(-c7scnc7C)cc6)C(C)(C)C)CC5)C4)CC3)cc2)cc1S(=O)(=O)C(F)(F)F (stereo partly drawn) [Compound 63, (2S,4R)-1-((2S)-2-(8-(4-((4′-chloro-6-((4-(4-(((4-(((R)-4-(ethyl(2-hydroxyethyl)amino)-1-(phenylthio)butan-2-yl)amino)-3-((trifluoromethyl)sulfonyl)phenyl)sulfonyl)carbamoyl)phenyl)piperazin-1-yl)methyl)-4-methyl-2,3,4,5-tetrahydro-[1,1′-biphenyl]-4-yl)methyl)piperazin-1-yl)-8-oxooctanamido)-3,3-dimethylbutanoyl)-4-hydroxy-N—((S)-1-(4-(4-methylthiazol-5-yl)phenyl)ethyl)pyrrolidine-2-carboxamide]",–
< 20,20 to 100,"Cc1ncsc1-c1ccc([C@H](C)NC(=O)[C@@H]2C[C@@H](O)CN2C(=O)[C@@H](NC(=O)CCCCCCC(=O)N2CCN(C[C@]3(C)CCC(c4ccc(Cl)cc4)=C(CN4CCN(c5ccc(C(=O)NS(=O)(=O)c6ccc(N[C@H](CCN7CCOC[C@H]7C)CSc7ccccc7)c(S(=O)(=O)C(F)(F)F)c6)cc5)CC4)C3)CC2)C(C)(C)C)cc1 [Compound 89, (2S,4R)-1-((S)-2-(8-(4-(((R)-4′-chloro-4-methyl-6-((4-(4-(((4-(((R)-4-((R)-3-methylmorpholino)-1-(phenylthio)butan-2-yl)amino)-3-((trifluoromethyl)sulfonyl)phenyl)sulfonyl)carbamoyl)phenyl)piperazin-1-yl)methyl)-2,3,4,5-tetrahydro-[1,1′-biphenyl]-4-yl)methyl)piperazin-1-yl)-8-oxooctanamido)-3,3-dimethylbutanoyl)-4-hydroxy-N—((S)-1-(4-(4-methylthiazol-5-yl)phenyl)ethyl)pyrrolidine-2-carboxamide]",–
